Assay results taken from patent US11617356B2, “Mouse lymphoma cell line and animal model of human high grade B-cell lymphoma” (PÉCSI TUDOMÁNYEGYETEM, priority 2015, dated 2023).

Tested on: Bc-DLFL.1 cells
Test: short-term in vitro survival of Bc-DLFL.1 cells on addition of recombinant BAFF
Type: cell-based, mouse
Settings: addition of recombinant BAFF to culture; data not shown
Excerpt: The specific conditions needed to propagate Bc-DLFL.1 raised the dependence of this lymphoma for tissue-derived factors for survival. The most likely candidates are the different receptors for BAFF. […] In normal B-cell development, TACI and BCMA is expressed following activation during plasmacytic differentiation, while BAFF-R disappears. BAFF-R is more characteristic of mature resting B-cells.

For “recombinant BAFF: recombinant BAFF, ligand of BAFF-R, BCMA and TACI, added to Bc-DLFL.1 cells in vitro”, the “short-term in vitro survival of Bc-DLFL.1 cells” value was “moderately increased”.
